Among the data in patent EP2311482A1, “Osteogenic synthetic BMP-7 peptides, pharmaceutical compositions cell culture medium containing same” (Industry Foundation Of Chonnam National University, priority 2009, dated 2011) are cytotoxicity values, retold here.

No end group written: not given here.

The subject of the series is cells. As to the kind of experiment: MTT assay for cytotoxicity. It is filed as cell-based. Conditions: within a range of used concentrations; FIGS. 3a and 3b. On the technique in general: Tetrazolium assays rely on reduction of a dye to a coloured formazan, in cell work by metabolically active cells.

As for “VEHDKEFFHPRYHHR [BFP 2, Val-Glu-His-Asp-Lys-Glu-Phe-Phe-His-Pro-Arg-Tyr-His-His-Arg]”, the cytotoxicity entry is “neither BFP 1 nor BFP 2 are toxic to cells”.
To “GQGFSYPYKAVFSTQ [BFP 1, Gly-Gln-Gly-Phe-Ser-Tyr-Pro-Tyr-Lys-Ala-Val-Phe-Ser-Thr-Gln]” belongs “neither BFP 1 nor BFP 2 are toxic to cells”.
